Reference: ChEMBL document CHEMBL2407052, “7-Substituted-sulfocoumarins are isoform-selective, potent carbonic anhydrase II inhibitors” (Bioorg Med Chem, 2013)
Calls of active or inactive are those of the source. The rule behind the calls is not given here.

Assays:
Carbonic anhydrase 9 [1] = molecular target: T1, Carbonic anhydrase 9 (Homo sapiens, UniProt Q16790); test: Inhibition of human transmembrane carbonic anhydrase 9 up to 50 uM after 6 hrs by stopped flow CO2 hydrase assay
Carbonic anhydrase 1 [2] = molecular target: T2, Carbonic anhydrase 1 (Homo sapiens, UniProt P00915); test: Inhibition of human cytosolic carbonic anhydrase 1 up to 50 uM after 6 hrs by stopped flow CO2 hydrase assay
Target sequence in this assay (P00915 2-261 limits assumed): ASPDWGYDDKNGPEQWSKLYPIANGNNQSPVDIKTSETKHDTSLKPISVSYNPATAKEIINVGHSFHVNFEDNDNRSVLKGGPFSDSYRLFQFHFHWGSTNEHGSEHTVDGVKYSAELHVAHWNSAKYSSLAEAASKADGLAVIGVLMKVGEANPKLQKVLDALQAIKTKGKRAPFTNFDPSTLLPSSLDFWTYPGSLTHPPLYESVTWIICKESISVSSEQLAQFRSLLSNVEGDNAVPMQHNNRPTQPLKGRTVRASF

Carbonic anhydrase 12 = Carbonic anhydrase 12 (Homo sapiens, UniProt O43570); test: Inhibition of human transmembrane carbonic anhydrase 12 after 6 hrs by stopped flow CO2 hydrase assay
Carbonic anhydrase 12, sequence (O43570 whole entry): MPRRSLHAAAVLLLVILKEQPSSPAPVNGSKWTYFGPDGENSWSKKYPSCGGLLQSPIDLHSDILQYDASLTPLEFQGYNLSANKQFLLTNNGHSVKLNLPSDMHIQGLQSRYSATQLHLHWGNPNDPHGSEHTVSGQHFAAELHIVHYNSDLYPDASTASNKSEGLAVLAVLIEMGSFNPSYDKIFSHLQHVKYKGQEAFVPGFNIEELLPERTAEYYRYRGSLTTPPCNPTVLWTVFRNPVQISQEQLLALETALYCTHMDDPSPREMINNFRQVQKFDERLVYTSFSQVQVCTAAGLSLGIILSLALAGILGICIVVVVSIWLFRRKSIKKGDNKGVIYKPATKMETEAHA

Carbonic anhydrase 9 [3] = molecular target: T1, Carbonic anhydrase 9; test: Inhibition of human transmembrane carbonic anhydrase 9 after 6 hrs by stopped flow CO2 hydrase assay
Carbonic anhydrase 1 [4] = molecular target: T2, Carbonic anhydrase 1; test: Inhibition of human cytosolic carbonic anhydrase 1 after 6 hrs by stopped flow CO2 hydrase assay
Target sequence in this assay (P00915 whole entry): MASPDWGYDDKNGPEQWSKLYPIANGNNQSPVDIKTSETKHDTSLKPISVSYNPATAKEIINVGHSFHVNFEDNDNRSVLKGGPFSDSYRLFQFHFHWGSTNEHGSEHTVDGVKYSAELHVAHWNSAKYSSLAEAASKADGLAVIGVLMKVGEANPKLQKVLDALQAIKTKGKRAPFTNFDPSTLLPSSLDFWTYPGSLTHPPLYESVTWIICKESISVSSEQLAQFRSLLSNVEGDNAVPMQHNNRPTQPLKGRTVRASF

SMILES | inhibition (Carbonic anhydrase 9 [1]) | inhibition (Carbonic anhydrase 1 [2]) | Ki (Carbonic anhydrase 12) [µM] | Ki (Carbonic anhydrase 9 [3]) [µM] | Ki (Carbonic anhydrase 1 [4]) [µM]
CS(=O)(=O)Oc1ccc2c(c1)OS(=O)(=O)C=C2 | inactive | inactive | > 10 | > 10 | > 10
O=S1(=O)CCc2ccc(OCc3ccccc3)cc2O1 | inactive | inactive | > 10 | > 10 | > 10
O=C(Cc1ccc(Cl)cc1)Oc1ccc2c(c1)OS(=O)(=O)C=C2 | inactive | inactive | > 10 | > 10 | > 10
O=S1(=O)CC(O)c2ccc(O)cc2O1 (stereo not given) | inactive | inactive | > 10 | > 10 | > 10
CC(=O)Oc1ccc2c(c1)OS(=O)(=O)C=C2 | inactive | inactive | > 10 | > 10 | > 10
CC(=O)Oc1ccc2c(c1)OS(=O)(=O)CC2 | inactive | inactive | > 10 | > 10 | > 10
COc1ccc2c(c1)OS(=O)(=O)C=C2 | inactive | inactive | > 10 | > 10 | > 10
O=S1(=O)C=Cc2ccc(O)cc2O1 | inactive | inactive | > 10 | > 10 | > 10
O=C(Cc1ccccc1Br)Oc1ccc2c(c1)OS(=O)(=O)C=C2 | inactive | inactive | > 10 | > 10 | > 10
CS(=O)(=O)Oc1ccc2c(c1)OS(=O)(=O)CC2 | inactive | inactive | > 10 | > 10 | > 10

Second part, the compound after the results:

inhibition (Carbonic anhydrase 9 [1]) | inhibition (Carbonic anhydrase 1 [2]) | Ki (Carbonic anhydrase 12) [µM] | Ki (Carbonic anhydrase 9 [3]) [µM] | Ki (Carbonic anhydrase 1 [4]) [µM] | SMILES
inactive | inactive | > 10 | > 10 | > 10 | O=S1(=O)C=Cc2ccc(OCc3ccccc3)cc2O1
inactive | inactive | > 10 | > 10 | > 10 | COc1ccc2c(c1)OS(=O)(=O)CC2
inactive | inactive | > 10 | > 10 | > 10 | O=S1(=O)CCc2ccc(O)cc2O1
inactive | inactive | > 10 | > 10 | > 10 | O=C(Cc1ccc(Cl)cc1)Oc1ccc2c(c1)OS(=O)(=O)CC2
inactive | inactive | > 10 | > 10 | > 10 | O=S1(=O)CC(O)c2ccc(OCc3ccccc3)cc2O1 (racemic)
inactive | inactive | > 10 | > 10 | > 10 | O=C(Cc1ccccc1Br)Oc1ccc2c(c1)OS(=O)(=O)CC2
